Experiments:
[1] = target: T1, HMGB2 (Homo sapiens, UniProt P26583); experiment: ELISA, immobilized HMa166 and HRP-labeled HMGB1 polyclonal antibody No. 12: nonspecific reaction to HMGB2; type: binding; settings: 1,820 ng/mL HMGB2; peptide 0.5 mg/mL; labeled polyclonal antibody No. 12
T1 sequence (P26583 1-209): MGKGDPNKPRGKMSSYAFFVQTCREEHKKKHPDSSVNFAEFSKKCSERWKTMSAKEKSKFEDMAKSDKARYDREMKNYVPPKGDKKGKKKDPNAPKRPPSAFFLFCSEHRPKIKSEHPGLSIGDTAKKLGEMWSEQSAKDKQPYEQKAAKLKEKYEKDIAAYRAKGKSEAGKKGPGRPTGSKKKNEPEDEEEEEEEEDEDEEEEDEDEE

[2] = system: HMGB1; experiment: ELISA, immobilized MHa166 and HRP-labeled monoclonal antibody HMa176: HMGB1 measurement; type: binding, human; settings: 50 ng/mL HMGB1, peptide 0.5 mg/mL
Protocol: Similar examinations were carried out for systems using another monoclonal antibody. It was examined how the reactions achieved by 50 ng/mL HMGB1 change when MHa176 antibody, which was obtained by immunization with HMGB1, were HRP-labeled and an HMGB2 peptide was allowed to coexist at a concentration of 0.5 mg/mL in an ELISA system with the immobilized anti-HMGB1 antibody MHa166 (FIG. 12A). Furthermore, effects of the coexisting HMGB2 peptide on HMGB2 measurements were similarly examined using 1,820 ng/mL HMGB2 (FIG. 12B).

[3] = target: T1, HMGB2; experiment: ELISA, immobilized HMa166 and HRP-labeled HMGB1 polyclonal antibody No. 14: nonspecific reaction to HMGB2; type: binding; settings: 1,820 ng/mL HMGB2; peptide 0.5 mg/mL; labeled polyclonal antibody No. 14
Protocol: (§1) Furthermore, whether commercially available anti-HMGB2 antibodies can suppress nonspecific reactions to HMGB2 even when the labelled antibody is changed was examined. Anti-HMGB1 antibody HMa166 at 10 μg/mL was immobilized onto a 96-well ELISA plate (Maxsorp, Nunc), and blocking was performed by dispensing 200 μL of ImmunoBlock (DS Pharma Biomedical) diluted five-fold in purified water. After washing with TBSt (10 mM Tris pH 7.4, 150 mM NaCl, 0.05% Tween-20), HMGB1 was added at 50 ng/mL or HMGB2 was added at 1,820 ng/mL, […] The mixture was allowed to react at 37° C. for two hours followed by washing with TBSt. After adding HMGB1 polyclonal antibody No. 12 or No. 14 obtained by immunizing rabbits with a synthetic human HMGB1 peptide or a recombinant human HMGB1, each of which had been labeled with HRP, the mixture was reacted at room temperature for one hour. After the reaction, the plate was washed with TBSt, and chromogenic substrate TMBZ (KPL) was added according to a standard method, the reaction was stopped with phosphoric acid, and the absorbances at 450 nm were measured using a microplate reader, to observe impairment of the reaction due to the anti-HMGB2 antibody.
(§2) Next, whether similar effects can be obtained with antibodies other than CP11-1 was examined. […]

[4] = system: HMGB1; experiment: Sandwich ELISA, immobilized HMa166 and HRP-labeled CP11-1: HMGB1 measurement in the presence of an HMGB2 absorbent; type: binding, human; settings: 12.5 ng/mL HMGB1, HMGB2 peptide 0 to 1.0 mg/mL
Protocol: Then, the effects of each anti-HMGB2 antibody were observed.
By means of an ELISA system using immobilized anti-HMGB1 antibody MHa166 and an HRP-labeled anti-HMGB1 antibody CP11-1, it was examined whether nonspecific reactions by HMGB2 will be decreased when the reaction is achieved by 1,820 ng/mL HMGB2 in the presence of the HMGB2 peptide at 0 to 1.0 mg/mL (FIGS. 8B and 9B). In addition, effects of the coexisting HMGB2 peptide on HMGB1 measurements were similarly examined using 12.5 ng/mL HMGB1 (FIGS. 8A and 9A).

[5] = system: HMGB1; experiment: ELISA, immobilized HMa166 and HRP-labeled HMGB1 polyclonal antibody No. 12: HMGB1 measurement; type: binding, human; settings: 50 ng/mL HMGB1; peptide 0.5 mg/mL; labeled polyclonal antibody No. 12
Protocol: as §1, with “Anti-HMGB1” for “Furthermore, whether commercially available anti-HMGB2 antibodies can suppress nonspecific reactions to HMGB2 even when the labelled antibody is changed was examined. Anti-HMGB1”, “to observe impairment of the reaction due to the anti-HMGB2 antibody.” left out
as §2

[6] = target: T1, HMGB2; experiment: Competitive sandwich ELISA, immobilized anti-HMGB1 antibody HMa166 and HRP-labeled anti-HMGB1 antibody CP11-1: nonspecific reaction to HMGB2; type: binding; settings: 1,820 ng/mL HMGB2; HMGB2 peptide 0 to 1.0 mg/mL; labeled CP11-1
Protocol: A 100 μL portion of 10 μg/mL anti-HMGB1 antibody HMa166 was added to a 96-well ELISA plate (Maxsorp, Nunc). Then, immobilization was carried out according to a standard method, and blocking was performed by dispensing 200 μL of ImmunoBlock (DS Pharma Biomedical) diluted five-fold in purified water. After washing with TBSt (10 mM Tris pH 7.4, 150 mM NaCl, 0.05% Tween-20), HMGB2 was added at 1,400 ng/mL, the mixture was allowed to react at room temperature for two hours followed by washing with TBSt, and an HRP-labeled anti-HMGB1 antibody CP11-1 was added. Then, after washing, chromogenic substrate TMBZ (KPL) was added according to a standard method. The reaction was stopped using phosphoric acid, and the absorbance at 450 nm was measured using a microplate reader. Furthermore, as a competitive agent, commercially available anti-HMGB2 antibodies shown in Table 1 were added to the reaction system at 10 μg/mL, and impairment of the reaction due to anti-HMGB2 antibodies was observed.
Furthermore, 0 to 1,300 μg/mL HMGB2 was measured by sandwich ELISA using the MHa166 antibody and the CP11-1 antibody, which were obtained by immunization with HMGB1, to observe how much HMGB2 reacts in ELISA using the MHa166 antibody and the CP11-1 antibody. […]

[7] = system: HMGB1; experiment: ELISA, immobilized HMa166 and HRP-labeled HMGB1 polyclonal antibody No. 14: HMGB1 measurement; type: binding, human; settings: 50 ng/mL HMGB1; peptide 0.5 mg/mL; labeled polyclonal antibody No. 14
Protocol: as §1, with “Anti-HMGB1” for “Furthermore, whether commercially available anti-HMGB2 antibodies can suppress nonspecific reactions to HMGB2 even when the labelled antibody is changed was examined. Anti-HMGB1”, “to observe impairment of the reaction due to the anti-HMGB2 antibody.” left out
as §2

Sequence	effect of HMGB2 peptide on HMGB2 measurements [1]	effect of HMGB2 peptide on reactivity of HMGB1 [2]	neutralizing effects on HMGB2 [3]	effect of HMGB2 peptide on measured values of HMGB1 [4]	effect of HMGB2 peptide on measured values of HMGB1 ([4]; listed as HM2-2 peptide)	enhancement of the reaction with HMGB1 [5]	absorption of nonspecific reaction to HMGB2 by HMGB2 peptide [6]	effect of HMGB2 peptide on HMGB1 measurements [7]	effect of HMGB2 peptide on HMGB1 measurements [5]
CREEHKKKHPDSSVNFAEFS [HM2-2, HMGB2-derived peptide, 23rd to 42nd amino acids of full-length human HMGB2]	attenuated	enhancement of reactivity of HMGB1	not observed	concentration-dependent reaction enhancement	concentration-dependent enhancement of the reaction	approximately 1.6 fold	absorbed nonspecific reactions to HMGB2 in a concentration-dependent manner	increased the reactivity of HMGB1	
MGKGDPNKPRGKMSSYA [HM2-1, HMGB2-derived peptide, 1st to 17th amino acids of full-length human HMGB2]	did not affect		not observed	hardly affected			able to absorb nonspecific reaction to HMGB2 in a concentration-dependent manner	did not have any influence	did not affect

Source: US20180246121A1, “IMMUNOLOGICAL TEST METHOD AND IMMUNOLOGICAL TEST KIT” (Fuso Parmaceutical Industries, Ltd., priority 2015, published 2018)
